The text below walks through data of PMC8645336, “Benchmarking a highly selective USP30 inhibitor for enhancement of mitophagy and pexophagy” (Life Science Alliance, 2021).

Assay in all cases: biochemical
Common to all, as to parameters: Ubiquigent DUB profiler selectivity panel, remaining enzyme activity as % of control
Common to all, as to settings: read-out: % of control remaining

In one experiment the target is T1, USP36 (Homo sapiens, UniProt Q9P275).
T1 sequence (Q9P275 1-1123): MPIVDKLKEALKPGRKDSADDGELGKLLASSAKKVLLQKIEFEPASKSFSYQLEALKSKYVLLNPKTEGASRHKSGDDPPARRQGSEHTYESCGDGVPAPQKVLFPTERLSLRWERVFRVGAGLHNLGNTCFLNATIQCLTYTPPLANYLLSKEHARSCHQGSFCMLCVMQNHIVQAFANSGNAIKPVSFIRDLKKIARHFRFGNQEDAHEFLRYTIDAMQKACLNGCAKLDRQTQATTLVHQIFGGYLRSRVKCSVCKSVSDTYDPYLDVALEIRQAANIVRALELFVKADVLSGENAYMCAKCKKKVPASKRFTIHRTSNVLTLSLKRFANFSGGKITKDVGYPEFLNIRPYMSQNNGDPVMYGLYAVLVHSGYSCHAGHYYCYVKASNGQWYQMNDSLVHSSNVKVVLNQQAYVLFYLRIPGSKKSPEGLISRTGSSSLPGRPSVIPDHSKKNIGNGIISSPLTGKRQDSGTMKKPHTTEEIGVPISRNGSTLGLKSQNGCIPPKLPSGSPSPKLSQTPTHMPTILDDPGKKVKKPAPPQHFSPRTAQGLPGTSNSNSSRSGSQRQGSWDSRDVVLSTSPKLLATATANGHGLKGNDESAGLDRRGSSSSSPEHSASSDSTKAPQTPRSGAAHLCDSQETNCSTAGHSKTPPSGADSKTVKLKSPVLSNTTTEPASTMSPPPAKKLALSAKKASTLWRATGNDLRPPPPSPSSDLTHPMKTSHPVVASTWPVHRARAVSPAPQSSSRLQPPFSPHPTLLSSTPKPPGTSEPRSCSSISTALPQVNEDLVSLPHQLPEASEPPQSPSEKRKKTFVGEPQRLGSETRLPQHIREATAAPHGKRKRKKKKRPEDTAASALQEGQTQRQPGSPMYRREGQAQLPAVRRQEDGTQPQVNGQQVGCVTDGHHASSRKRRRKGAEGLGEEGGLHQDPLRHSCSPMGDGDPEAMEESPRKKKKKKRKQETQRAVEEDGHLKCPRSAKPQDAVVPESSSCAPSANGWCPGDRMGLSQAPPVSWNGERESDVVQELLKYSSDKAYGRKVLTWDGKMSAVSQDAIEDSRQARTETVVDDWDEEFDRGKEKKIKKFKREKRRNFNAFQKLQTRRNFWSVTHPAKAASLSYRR
The procedure, abridged: (§1)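 CMPD-39 selectivity was profiled at 1-100 μM across >40 DUBs. Cellular engagement used 2 h CMPD-39 pretreatment, then HA-Ub-PA probe for 10 min at 37°C, with USP30 band shift on immunoblot. TOMM20 ubiquitylation was blotted in YFP-PRKN hTERT-RPE1 cells after 1 h antimycin A/oligomycin A (1 μM each).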

For the next experiment, the target named is T2, USP27x (Homo sapiens, UniProt A6NNY8).
T2 sequence (A6NNY8 1-438): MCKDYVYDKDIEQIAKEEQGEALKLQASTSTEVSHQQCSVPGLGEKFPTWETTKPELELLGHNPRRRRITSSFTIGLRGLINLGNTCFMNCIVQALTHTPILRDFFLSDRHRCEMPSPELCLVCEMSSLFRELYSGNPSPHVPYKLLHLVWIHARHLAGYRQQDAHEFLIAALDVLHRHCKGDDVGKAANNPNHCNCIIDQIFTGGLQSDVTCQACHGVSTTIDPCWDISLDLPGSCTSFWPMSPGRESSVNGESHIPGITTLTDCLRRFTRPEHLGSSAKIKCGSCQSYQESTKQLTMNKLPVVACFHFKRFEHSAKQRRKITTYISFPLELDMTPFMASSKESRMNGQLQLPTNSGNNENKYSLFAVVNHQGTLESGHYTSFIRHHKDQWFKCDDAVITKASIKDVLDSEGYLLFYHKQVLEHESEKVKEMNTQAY
The procedure, abridged:
as §1

For the next experiment, the target named is T3, UCHL5 (Homo sapiens, UniProt Q9Y5K5).
T3 sequence (Q9Y5K5 1-329): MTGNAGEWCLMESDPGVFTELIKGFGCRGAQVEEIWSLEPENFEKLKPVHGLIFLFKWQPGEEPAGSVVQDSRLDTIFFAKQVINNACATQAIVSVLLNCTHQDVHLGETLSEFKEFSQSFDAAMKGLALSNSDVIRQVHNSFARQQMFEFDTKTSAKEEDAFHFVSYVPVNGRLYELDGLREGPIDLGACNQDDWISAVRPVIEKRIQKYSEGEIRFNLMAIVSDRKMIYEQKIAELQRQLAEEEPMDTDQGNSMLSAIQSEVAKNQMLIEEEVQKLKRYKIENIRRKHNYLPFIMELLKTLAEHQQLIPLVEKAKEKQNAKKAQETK
The method, boiled down:
as §1

`CC(C)(C)NS(=O)(=O)c1ccc(NC(=O)[C@H](Cc2ccccc2)NC(=O)c2ccc(F)cc2)cc1` [compound 39, CMPD-39]: at USP36, the remaining activity at 1 µM worked out at 110%, the remaining activity at 10 µM amounted to 98.8% and the remaining activity at 100 µM came to 94.8%. For the same compound, on USP27x, the remaining activity at 1 µM turned out to be 108%, the remaining activity at 10 µM worked out at 93.8% and the remaining activity at 100 µM was 93.4%. Further, at UCHL5, the remaining activity at 1 µM amounted to 107%, the remaining activity at 10 µM was 98% and the remaining activity at 100 µM was determined as 101%.
